Laboratory results from patent US20140260103A1, “Methods of Making Solid Stick Antiperspirant Compositions” (The Procter & Gamble Company, priority 2013, published 2014).

Test: Hygroscopicity: moisture pick up of antiperspirant active in controlled relative humidity
Assay type: physicochemical
Conditions: at 86% RH, 5 days, 20° C.
Procedure: One way to evaluate the hygroscopic nature of an antiperspirant active is to determine the equilibrium moisture pick up of the active after 5 days in a controlled relative humidity environment. Specific humidity chambers can be created placing saturated salt solutions in desiccators at a specific temperature. Different salts are used to create different humidities, for example potassium chloride can be used to make an 86% relative humidity (RH) environment at 20° C. In general there is an increase in moisture pick up as humidity is increased for the antiperspirant actives shown, however there are clear differences in slope and amount of moisture pick up at high humidity. Materials with higher slope and larger increases at high humidity (i.e. 86% RH) are considered to be more hygroscopic. The aluminum zirconium trichlorohydrate active (metal to chloride ratio=1.6) from Inventive Example 1 is the least hygroscopic (28% moisture pick up at 86% RH) with the aluminum zirconium tetrachlorohydrate active (metal to chloride ratio=1.2) being substantially more hygroscopic (40% moisture pick up at 86% RH). […] This may explain the substantial difference observed in the amount of sweat measured between Inventive Examples 1 and 2. […]

## aluminum zirconium tetrachlorohydrate
  moisture pick up (hygroscopicity): 40%

## aluminum zirconium trichlorohydrate
  moisture pick up (hygroscopicity): 28%
